The values that follow come from patent US7795208B2, “Methods of using deacetylase inhibitors to promote cell differentiation and regeneration” (The Salk Institute for Biological Study, priority 2001, dated 2010).

Several values for one entry are separate records, joined by “and”; a condition that tells them apart may be missing. Equal entries are not always repeated. Entries after “also recorded” stand apart in the source; their conditions may differ.

Type in all cases: cell-based, mouse
In one assay the test system is C2C12 cells. Nature of the assay: Differentiation and muscle protein expression of C2C12 myoblasts exposed to deacetylase inhibitors (MHC immunofluorescence, Western blot, RT-PCR, FACS). How it is done: (§1) Mouse muscle myoblast C2C12 cells (obtained from the American Type Culture Collection, ATCC CRL-1772) and CC42 cells (from Dr. Kenneth Walsh, Tufts University School of Medicine) were cultured in DMEM supplemented with 20% fetal bovine serum, 2 mM glutamine and 1× kanamycin (growth medium, GM). Cellular differentiation was induced with DMEM supplemented with 2% horse serum and 1× insulin, transferring, selenium (Life Technologies). Human skeletal myocytes (CC-2561) were purchased from Clonetics. Stable C2C12 cell lines with integrated reporters are described in Wu, Z., et al., Mol Cell Biol 20:3951-64 (2000). The MCK-luc, 4RE-luc, MEF2 reporter constructs have been described in Puri, P. L., et al., EMBO Journal 16:369-83 (1997a) and Sartorelli, V., et al., Molecular & Cellular Biology 17:1010-26 (1997). The E2F-luc plasmid is described in Helin, K., et al., Genes Dev 7:1850-61 (1993). The MLC-lacZ-nls plasmid is described in Wu, et al. (2000). Dr. Stuart Schreiber (Harvard University) provided the vector expressing Flag-HDAC1, which is described in Taunton, J., et al., Science 272: 408-11 (1996). Transient transfections were performed using FuGENE 6 transfection reagent (Roche Molecular Biochemicals). Following transfections, luciferase activity was determined using the Dual-Luciferase reporter assay system (Promega) on a microtiter luminescence detection system (MLX, Dynex).
For immunoblotting, cell extracts were obtained after incubating the cells in standard lysis buffer. Western blots were probed with the following antibodies: anti-MHC (MF-20), anti-myogenin (FD5), and anti-tubulin (E7), obtained from the Developmental Studies Hybridoma Bank, University of Iowa. Primary antibodies were visualized with the ECL cheminoluminescent kit (Amersham). Cells were fixed and stained with anti-MHC MF-20 antibodies. Nuclei were visualized by 4′,6′-[…]-2-phenylindole (DAPI). FITC-conjugated or Texas red-conjugated secondary antibodies were employed to reveal the primary antibodies.
C2C12 and CC42 cells were exposed to sodium butyrate 5 mM (Sigma), trichostatin A 50 nM (Upstate Biotechnologies), or valproic acid 10 mM (Sigma) for 24 hours in GM (GM regimen). TSA was removed and the cells cultured in DM for 48 hrs before being analyzed. When indicated (DM regimen), the cells were exposed to deacetylase inhibitors when switched from GM to DM and cultured in their presence for 48 hrs.
Another striking effect induced by DI is their ability to increase the number of nuclei present in MHC positive cells. While approximately 15% of the total nuclei are present in elongated, MHC-positive myotubes not exposed to DI, approximately 75-80% of the total nuclei are detected in hypernucleated MHC-positive myotubes when these have been previously exposed to DI (see FIG. 1D and Table 1). In Table 1, C2C12 cells were either exposed to sodium butyrate, TSA, VPA or left untreated for 24 hours in GM. The medium was replaced with DM without DI, and MHC expression was detected by immunofluorescent staining. Nuclei were visualized with DAPI. The values in parenthesis indicate the percentage of nuclei detected in MHC-positive cells. The values are derived from two independent trials.
For orientation: In western blotting, separated proteins are transferred to a membrane and probed.

The test system of assay [1] is 4RE-luc, MEF2-luc, MCK-luc. The experiment in a line: Luciferase assay of transiently transfected myogenic reporters in skeletal myoblasts. How it is done: as §1, with “Dr. Stuart Schreiber (Harvard University) provided the vector expressing Flag-HDAC1, which is described in Taunton, J., et al., Science 272: 408-11 (1996). Transient transfections were performed using FuGENE 6 transfection reagent (Roche Molecular Biochemicals).” left out
C2C12 and CC42 cells were exposed to sodium butyrate 5 mM (Sigma), trichostatin A 50 nM (Upstate Biotechnologies), or valproic acid 10 mM (Sigma) for 24 hours in GM (GM regimen). TSA was removed and the cells cultured in DM for 48 hrs before being analyzed. […]

For the next assay, the system named is 4RE-luc and MCK-luc. The experiment in a line: Chromatin-integrated muscle-specific reporters in stable C2C12 clones. The following applies: TSA in GM (presence of serum), 48 hours. How it is done:
(§2) FIGS. 2A-D are graphs showing DI activation muscle-specific transcription in skeletal muscle cells. […] Luciferase activity was measured in non-treated cells cultured in either GM (GM) or DM (DM). Alternatively, C2C12 were exposed to sodium butyrate for 24 hours in GM and then switched to DM without sodium butyrate (Butyr/GM>DM) or treated with sodium butyrate when cultured in DM (Butyr/DM) before being analyzed for luciferase activity. […] Luciferase assays were performed after culturing the cells for 48 hours in DM without sodium butyrate. […] The reporter activity was also analyzed in cells differentiated in the absence of TSA (DM)
(§3) Mouse muscle myoblast C2C12 cells (obtained from the American Type Culture Collection, ATCC CRL-1772) and CC42 cells (from Dr. Kenneth Walsh, Tufts University School of Medicine) were cultured in DMEM supplemented with 20% fetal bovine serum, 2 mM glutamine and 1× kanamycin (growth medium, GM). Cellular differentiation was induced with DMEM supplemented with 2% horse serum and 1× insulin, transferring, selenium (Life Technologies). Human skeletal myocytes (CC-2561) were purchased from Clonetics. […] Following transfections, luciferase activity was determined using the Dual-Luciferase reporter assay system (Promega) on a microtiter luminescence detection system (MLX, Dynex). […]

Another assay relates to cyclinA-luc. The experiment in a line: Integrated cyclinA-luc reporter in stable C2C12 clone. To be noted: TSA treatment in GM. On the procedure:
as §2, §3

Where [2] appears, read: C2C12, DI 24 hours in GM, then DM without DI, Tr. 1 and Tr. 2.

Consider `CC(/C=C/C(=O)NO)=C\[C@@H](C)C(=O)c1ccc(N(C)C)cc1` [TSA, trichostatin A], for which, in the assay on C2C12 cells (setting [2]), the “Nuclei/MHC-Positive Cells (number of nuclei)” value was 200 and 210; the “percentage of nuclei detected in MHC-positive cells” value was 75% and 65%. For the same compound, the “endogenous MCK transcripts (RT-PCR)” value with C2C12 cells (undifferentiated myoblasts exposed in GM) is on record as “induction of endogenous MCK transcripts”. The “MHC expression and frequency of MHC-positive multinucleated cells” value in the assay on C2C12 cells (undifferentiated myoblasts exposed in GM, differentiated in the absence of DI, vs untreated cells) is on record as “effects undistinguishable from those exerted by sodium butyrate”. The “HDAC1-mediated inhibition of 4RE-luc” value in assay [1] (HDAC1 expression vector co-transfected) is given as “could be reversed”. In addition, the “transcription of transiently transfected myogenic reporter constructs” value in assay [1] (treatment in GM or in DM) was “stimulates transcription of the reporter constructs only when the DI inhibitors are applied to the cells cultured in GM; also recorded: activation of a transfected MCK-luc reporter”. For the same compound, the “activation of integrated 4RE-luc and MCK-luc templates” value with 4RE-luc and MCK-luc is “two-to-three”. The “serum-dependent transcription of integrated cyclinA-luc” value in the assay with cyclinA-luc is listed as “not stimulated”.
